Laboratory results: US6080753A, “Stimulating nerve growth with immunophilins” (Johns Hopkins University School of Medicine, priority 1997, dated 2000)
“Also recorded” adds a separate entry of the source. One block for each compound: values may come before it.

How the values were obtained:
FKBP [1] = biological target: T1, FKBP (Rattus norvegicus, UniProt Q62658); assay: [3H]FK506 binding in rat tissues (Table 1A); design: from tissue; host or cells: rat sciatic nerve, cerebral cortex, thymus, spleen; neonatal rat forebrain and growth cones
From the text: If FKBP were physiologically associated with neuronal process extension in the actions of GAP-43, then one might anticipate substantial levels of FKBP in peripheral nerve. Accordingly, we measured [^3 H]FK-506 binding in rat sciatic nerve, as well as in growth cones isolated from 2-day-old rat pups, and compared values with those of the cerebral cortex and several peripheral tissues.
For axon transport experiments, classic ligature techniques were used following the methods of Tetzlaff et al. One week following sciatic nerve crush two collection ligatures (510 sutures) were placed on the nerve approximately 10 mm apart with the distal most ligature positioned 10 mm proximal to the initial crush sight. Six hours later, 5-3 mm segments of the nerve were collected from regions proximal to, distal to, and between the collection ligatures as illustrated in FIG. 5. The nerve segments were prepared for [^3 H]FK-506 binding assays by homogenizing in 10 volumes of 50 mM Tris-HCl, pH 7.4. Homogenates were centrifuged at 15,000×g for 20 min at 4° C., and supernatants were collected and assayed for total protein concentration using the Coomassie blue dye binding assay (Pearce). [^3 H]FK-506 binding was carried out as described (4) on aliquots containing 2 ug of total soluble protein in a final volume of 0.4 ml assay buffer consisting of 50 mM Tris-HCl, pH 7.4, 2 mg/ml bovine serum albumin, 250 pM [^3 H]FK-506, and varying concentrations of unlabeled FK-506. Following incubation at 25° C. for 60 min, 0.35 ml was layered over a 0.8 ml column of LH-20 Sephadex (Pharmacia LKB) and washed with 0.4 ml of assay buffer. The eluates were collected and counted in a scintillation counter.

FKBP [2] = biological target: T1, FKBP; assay: [3H]FK506 autoradiography on dorsal root ganglia cultures; type: binding; settings: 1 μM unlabeled FK506, 1 nM [3H]FK506
Protocol: For [^3 H]FK506 autoradiography, dorsal root ganglia cultures were grown on chamber slides coated with collagen, 5 μg/cm^2. Cultures were fixed on the slide with ice cold 4.0% freshly depolymerized paraformaldehyde in 0.1 M sodium phosphate buffer, pH 7.4, for 1 hr, then washed two times with phosphate buffered saline. Fixed cultures were labeled with [^3 H]FK506 by pre-incubating the slides in a buffer consisting of 50 mM Hepes, 2 mg/ml bovine serum albumin, 0.02% Tween-20 pH 7.4. This was followed by incubation in the same assay buffer containing 1 nM [^3 H]FK506. Non-specific binding was determined by adding 1 μM unlabeled FK506. The slides were then rinsed 4×5 min prior to drying, and juxtaposed to tritium-sensitive film for 10 days.

PC-12 cells = assay: Neurite outgrowth in PC-12 cells; type: cell-based
Protocol: PC-12 cells were maintained at 37° C., 5% CO2, in Dulbecco's modified Eagle medium (DMEM) supplemented with 10% heat-inactivated horse serum and 5% heat-inactivated fetal bovine serum. For differentiation in NGF, cells were plated at 1×10^5 in 35 mm culture wells coated with rat tail collagen at 5 μg/cm^2, and allowed to attach before replacing the media with DBMEM supplemented with 2% fetal horse serum, 1% fetal calf serum, NGF and/or FK506 or rapamycin. For quantitation of neurite outgrowth, random photographs were made (3-4 per well), and process bearing neurons were counted with processes being greater than 5 μm. Experimental conditions were unknown by the photographer and cell counter. Four separate experiments were performed in duplicate for each data point presented. Neurites were identified and counted from approximately 100 cells per photograph. Thus, neurites from 1200-1600 cells were counted per data point.

FKBP [3] = biological target: T1, FKBP; assay: [3H]FK506 binding to PC-12 cell homogenates; design: endogenous in cells; host or cells: PC-12 cells; settings: for [3H]FK506 binding following NGF treatment: PC-12 cells, NGF 50 ng/ml
Protocol: Levels of FKBP in PC-12 cells were obtained from Scatchard analysis of [^3 H]FK506 binding curves. Cultures were scraped from the culture wells and homogenized in 10 volumes of 50 mM Tris-HCl, pH 7.4, 1 mM EDTA, 100 μg/ml phenylmethylsulfonylfluoride and centrifuged at 40,000×g for 20 min at 4° C. Protein was determined by the Coomassie blue dye binding assay using bovine serum albumin as a standard. Binding of 250 pM [^3 H]dihydro FK506 (86.5 Ci/mmol, DuPont/NEN) was assessed for samples containing 5 μg soluble protein in a final volume of 0.4 ml assay buffer containing 50 mM Tris-HCl, pH 7.4, 2 mg/ml BSA and varying concentrations of unlabeled FK506. After 60 min incubation at 25° C., 0.35 ml was layered over a 0.8 ml column of LH-20 Sephadex (Pharmacia LKB), pre-equilibrated with assay buffer. The column was further washed with 0.4 ml of assay buffer, the eluates collected, mixed with Formula 963 (DuPont/NEN) and counted in a Beckman scintillation counter. Specific binding was determined by subtracting binding obtained in the presence of 1 μM unlabeled FK506 from total [^3 H]FK506 bound.

dorsal root ganglia = assay: Neurite/axon outgrowth in dorsal root ganglia explant cultures; type: cell-based, rat; settings: for time at which growth begins to plateau / time by which some outgrowth is evident: all concentrations
Protocol: Stage E16 embryos were removed from pregnant Sprague-Dawley rats and the dorsal root ganglia dissected. Whole ganglia explants were cultured in collagencoated 35 mm dishes (Falcon) using N2 medium (Dulbecco's Modified Eagle medium and Ham's F12 medium mixed 1:1 and supplemented with progesterone, selenium, insulin, putrescine, glucose, and penicillin-streptomycin) at 37° C. in a 15% CO2 environment. Sensory ganglia were treated with various concentrations of NGF and/or FK506 or rapamycin or anti-NGF antibody. Ganglia were observed every 2-3 days under phase-contrasting using an Olympus IMT-2 inverted microscope, and measurements of axon length were made. The axonal field of each ganglion was divided into four quadrants, and the length of the longest axons in each quadrant was measured in microns using an eye-piece micrometer. The average of these measurements was taken as the axon length for the ganglion.

T1 sequence (Q62658 whole entry): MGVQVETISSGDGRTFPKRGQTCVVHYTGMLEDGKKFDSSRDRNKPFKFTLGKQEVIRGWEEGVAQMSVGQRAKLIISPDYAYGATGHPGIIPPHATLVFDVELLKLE

[3H]FK506 binding Bmax (FKBP [1]; adult rat, cerebral cortex): 48.0 pmol/mg protein
[3H]FK506 binding Bmax (FKBP [1]; adult rat, sciatic nerve): 22.1 pmol/mg protein
[3H]FK506 binding Bmax (FKBP [1]; adult rat, spleen): 8.0 pmol/mg protein
[3H]FK506 binding Bmax (FKBP [1]; adult rat, thymus): 9.5 pmol/mg protein
[3H]FK506 binding Bmax (FKBP [1]; neonatal rat, forebrain): 25.5 pmol/mg protein
[3H]FK506 binding Bmax (FKBP [1]; neonatal rat, growth cones): 10.2 pmol/mg protein
Compound: [3H]CC([3H])C[C@@H]1/C=C(\C)C[C@H](C)C[C@H](OC)[C@H]2O[C@@](O)(C(=O)C(=O)N3CCCC[C@H]3C(=O)O[C@H](/C(C)=C/[C@@H]3CC[C@@H](O)[C@H](OC)C3)[C@H](C)[C@@H](O)CC1=O)[C@H](C)C[C@@H]2OC (some centres unmarked) [[^3 H]FK506]

Compound: C=CC[C@@H]1/C=C(\C)C[C@H](C)C[C@H](OC)[C@H]2O[C@@](O)(C(=O)C(=O)N3CCCC[C@H]3C(=O)O[C@H](/C(C)=C/[C@@H]3CC[C@@H](O)[C@H](OC)C3)[C@H](C)[C@@H](O)CC1=O)[C@H](C)C[C@@H]2OC [FK506]
displacement of [3H]FK506 autoradiographic grains (FKBP [2]): autoradiographic grains are abolished
kind of effect on neuritic processes (PC-12 cells): primarily increases neurite length
reduction of the NGF concentration needed to elicit maximal outgrowth (PC-12 cells; FK506 100 nM): 20-50 fold
effect on NGF-stimulated neurite outgrowth (PC-12 cells; FK506 100 nM, 48 hr): markedly augments the effect of NGF
additional neurite outgrowth at maximal NGF (PC-12 cells; FK506 100 nM, NGF 10-100 ng/ml): fails to produce additional neurite outgrowth
neurite outgrowth in the absence of NGF (PC-12 cells; no NGF): fails to elicit neurite outgrowth; also recorded: fails to stimulate neurite outgrowth
EC50 (PC-12 cells; with NGF 1 ng/ml, 48 hr, read-out: half maximal effects on neurite outgrowth): ~100 pM
FK506 concentration eliciting the same maximal outgrowth as 50 ng/ml NGF (PC-12 cells; with submaximal NGF 1 ng/ml, 48 hr): 1 nM
IC50 (FKBP [3]; untreated PC-12 cell homogenates, 250 pM radioligand, read-out: Fifty percent inhibition of [3H]FK506 binding): 1000 to 2000 pM
neurite outgrowth compared with no added growth factor (dorsal root ganglia; FK506 1 pM): greater than in its absence
neurite/axon outgrowth (dorsal root ganglia; FK506 1 μM alone): produces a similar neurotrophic effect; also recorded: abundant axon outgrowth
neurite outgrowth (dorsal root ganglia; FK506 0.1 and 10 nM): Progressively greater outgrowth
concentration required for maximal outgrowth (dorsal root ganglia; FK506 alone): 1 µM
lowest concentration producing a noticeable increase in growth (dorsal root ganglia; FK506 alone): 1 nM
lowest concentration producing detectable augmentation of outgrowth (dorsal root ganglia; FK506 alone): 1 pM
time at which growth begins to plateau (dorsal root ganglia): 5 to 6 days
time by which some outgrowth is evident (dorsal root ganglia): ≤ 1 days

Compound: CO[C@H]1C[C@@H]2CC[C@@H](C)[C@@](O)(O2)C(=O)C(=O)N2CCCC[C@H]2C(=O)O[C@H]([C@H](C)C[C@@H]2CC[C@@H](O)[C@H](OC)C2)CC(=O)[C@H](C)/C=C(\C)[C@@H](O)[C@@H](OC)C(=O)[C@H](C)C[C@H](C)/C=C/C=C/C=C/1C [rapamycin]
kind of effect on neuritic processes (PC-12 cells): augments the number of processes as well as their length
combined effect of FK506 and rapamycin (PC-12 cells; FK506 plus rapamycin): additive
neurite outgrowth (PC-12 cells; rapamycin 1 nM): major neurite outgrowth
blockade of the neurotrophic actions of FK506 (PC-12 cells; rapamycin 1 μM): fails to block the neurotrophic actions of FK506
blockade of FK506 effect on outgrowth (dorsal root ganglia; rapamycin 1 μM with FK506 1 μM): completely blocks the effects of FK506; also recorded: completely inhibits axon outgrowth in the presence of FK506

[3H]FK506 binding following NGF treatment (FKBP [3]): increases markedly
[3H]FK506 binding following NGF treatment (FKBP [3]; by 20 hr): triples
Compound: nerve growth factor [NGF]
concentration for maximal augmentation of neurite outgrowth (PC-12 cells; NGF alone): 50 to 100 ng/mL
NGF concentration for half maximal outgrowth (PC-12 cells; in the absence of FK506): 5 ng/mL
neurite/axon outgrowth (dorsal root ganglia; NGF 100 ng/ml): markedly increases the number and length of ganglia processes; also recorded: abundant axon outgrowth
time at which growth begins to plateau (dorsal root ganglia): 5 to 6 days
time by which some outgrowth is evident (dorsal root ganglia): ≤ 1 days
